Here are results for 10 compounds from PubChem BioAssay (NCI).

What all share (test): DTP human tumour cell line panel, 48 h
The test system of test [1] is U251 CNS.
Test [2] deals with SN12C renal.
Test [3] concerns A549 NSCLC.
The subject of test [4] is A498 renal.
Test [5] has as its system RXF 393 renal.
Test [6] relates to HCC-2998 colon.
In test [7] the test system is HL-60(TB) leukemia.
Test [8] relates to SF-295 CNS.
The test system of test [9] is SNB-19 CNS.
The test system of test [10] is M14 melanoma.

The structures appear in SMILES notation.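 Test compounds were applied to cells in 96-well plates for 48 hours at 5 doses. At the GI50, growth is halved. The concentration for full growth arrest is given as TGI.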

Regarding `COc1cc2c(cc1OC)-c1c(c3ccc([N+](=O)[O-])cc3c(=O)n1CCCN=[N+]=[N-])C2=O`, the GI50 – broadly, the concentration that inhibits growth by half – in test [1] was 11.6 µM; in test [2] it was 46.7 µM; in [3] it was 56.6 µM; in [4], 40.7 µM; in test [5], greater than 100 µM; in [6] it was 83.9 µM. Also, the GI50 in test [7] was 73 µM; in test [8], 30.1 µM; in test [9] it was greater than 100 µM; in test [10], 20.3 µM. In addition, the TGI in test [1], in [2], in test [3], in test [4], in test [5] and in test [6] was greater than 100 µM in each case. Further, the TGI – broadly, the concentration giving total growth inhibition – in [7] was greater than 100 µM; in test [8], greater than 100 µM; in test [9], greater than 100 µM; in test [10] it was 67.3 µM.

Consider `CC(Oc1ccc2c(=O)cc(-c3ccccc3)oc2c1)C(=O)O` (centres undefined), for which the concentration for total growth inhibition (TGI) in [1], in test [2], in test [3], in test [4], in test [5] and in test [6] was greater than 100 µM in each case. Besides, the TGI in test [7], in test [8], in [9] and in test [10] was greater than 100 µM in each case.

Regarding `O=c1oc2c(O)c(O)cc3c(=O)oc4c(O)c(O)cc1c4c23`, the TGI in [1] is 79 µM; in test [2] it was greater than 100 µM; in [3] it was greater than 100 µM; in [4], greater than 100 µM; in [5] it was greater than 100 µM; in [6] it was greater than 100 µM. Further, the TGI was greater than 100 µM in [7], greater than 100 µM in [8], 57.3 µM in test [9] and greater than 100 µM in test [10]. For the same compound, the GI50 in [5], in test [6], in [7] and in [8] was greater than 100 µM in each case.

Take `N#Cc1ccc(O)c(C2=NCC(c3ccc(-c4ccccc4)cc3)O2)c1` (centres undefined): the 50% growth inhibitory concentration (GI50) is 0.326 µM in test [1]; 0.606 µM in test [2]; 0.418 µM in test [3]; 0.402 µM in test [4]; 0.487 µM in [5]; 0.628 µM in [6]. In addition, the GI50 in [7] is 0.416 µM; in [8], 0.335 µM; in test [9], 0.489 µM; in test [10], 0.399 µM. Further, the TGI came out at 11.6 µM in [1]; 16.9 µM in [2]; 8.06 µM in test [3]; 18.5 µM in [4]; 5.55 µM in test [5]; 21.6 µM in test [6]. For the same compound, the TGI in test [7] was 3.73 µM; in test [8] it was 11.8 µM; in [9] it was 26.4 µM; in test [10] it was 2.95 µM.

For the compound `CC(O)(c1ccc(OCCC[N+](C)(C)C)cc1)C(C)(O)c1ccc(OCCC[N+](C)(C)C)cc1` (centres undefined), the TGI in test [1], in test [2], in [3], in test [4], in test [5] and in test [6] was greater than 100 µM throughout. The TGI in [7], in [8], in test [9] and in test [10] was greater than 100 µM in each case.

Take `COc1ccc(Cl)cc1Nc1nc(C(F)(F)F)ccc1C(=O)N/N=C/c1ccccc1Cl`: the GI50 in test [1] was 1.57 µM; in test [2] it was 2.56 µM; in [3], 3.53 µM; in test [4], 3.44 µM; in test [5] it was 0.455 µM; in [6], 1.97 µM. Further, the GI50 is 2.74 µM in test [7], 0.27 µM in test [8], 2.34 µM in test [9] and 2.13 µM in [10]. For the same compound, the TGI was greater than 31 µM in test [1]; greater than 100 µM in test [2]; 18.5 µM in test [3]; 19.5 µM in [4]; 3.06 µM in test [5]; 19.2 µM in test [6]. Further, the TGI was greater than 19.7 µM in test [7], 1.36 µM in [8], greater than 55.7 µM in test [9] and 19.4 µM in test [10].

In the case of `COc1ccccc1/C=C1\CCC(CN2CCOCC2)C1=O` (centres undefined), the TGI was 34.2 µM in test [1]; 16.2 µM in [2]; 45 µM in [3]; 32.4 µM in test [4]; 30.6 µM in [5]; 28.3 µM in test [6]. The TGI is 6.42 µM in test [7], 34.6 µM in test [8], 22.6 µM in test [9] and 18.8 µM in test [10].

For the compound `CSC(=NC(=O)c1ccccc1)SCCSC(=NC(=O)c1ccccc1)SC`, the TGI in test [1], in test [2], in test [3], in [4], in [5] and in test [6] was greater than 100 µM in each case. The TGI in test [7], in test [8], in test [9] and in [10] was greater than 100 µM in each case.

For `CCCCCCCCCCCCCC(=O)NO`, the TGI came to 33.8 µM in test [1]; 38.9 µM in test [2]; 42.9 µM in test [3]; 63.2 µM in test [4]; 19 µM in test [5]; 28.7 µM in test [6]. Further, the TGI in test [7] came to 23.7 µM; in [8], 60.9 µM; in [9] it was 73.2 µM; in test [10], 36.2 µM.

For the compound `N#Cc1ccc(C(=O)c2cnn(-c3ccc(F)cc3)c2N)cc1`, the GI50 in test [1] is greater than 23.1 µM; in test [2], greater than 25 µM; in test [3], greater than 25 µM; in [4], greater than 25 µM; in test [5] it was greater than 25 µM; in [6] it was greater than 25 µM. Further, the GI50 in test [7], in [8], in test [9] and in [10] was greater than 25 µM each time. Also, the TGI in test [1], in test [2], in test [3], in test [4], in test [5] and in [6] was greater than 25 µM each time. The TGI in test [7], in [8], in test [9] and in [10] was greater than 25 µM in each case.
